Data: patent US20260042762A1 (Kymera Therapeutics, Inc., priority 2018, published 2026)

Target: T1, MerTK (Homo sapiens, UniProt Q12866)
T1 construct: endogenous in cells; host or cells: Jurkat cells
T1 sequence (Q12866 21-999): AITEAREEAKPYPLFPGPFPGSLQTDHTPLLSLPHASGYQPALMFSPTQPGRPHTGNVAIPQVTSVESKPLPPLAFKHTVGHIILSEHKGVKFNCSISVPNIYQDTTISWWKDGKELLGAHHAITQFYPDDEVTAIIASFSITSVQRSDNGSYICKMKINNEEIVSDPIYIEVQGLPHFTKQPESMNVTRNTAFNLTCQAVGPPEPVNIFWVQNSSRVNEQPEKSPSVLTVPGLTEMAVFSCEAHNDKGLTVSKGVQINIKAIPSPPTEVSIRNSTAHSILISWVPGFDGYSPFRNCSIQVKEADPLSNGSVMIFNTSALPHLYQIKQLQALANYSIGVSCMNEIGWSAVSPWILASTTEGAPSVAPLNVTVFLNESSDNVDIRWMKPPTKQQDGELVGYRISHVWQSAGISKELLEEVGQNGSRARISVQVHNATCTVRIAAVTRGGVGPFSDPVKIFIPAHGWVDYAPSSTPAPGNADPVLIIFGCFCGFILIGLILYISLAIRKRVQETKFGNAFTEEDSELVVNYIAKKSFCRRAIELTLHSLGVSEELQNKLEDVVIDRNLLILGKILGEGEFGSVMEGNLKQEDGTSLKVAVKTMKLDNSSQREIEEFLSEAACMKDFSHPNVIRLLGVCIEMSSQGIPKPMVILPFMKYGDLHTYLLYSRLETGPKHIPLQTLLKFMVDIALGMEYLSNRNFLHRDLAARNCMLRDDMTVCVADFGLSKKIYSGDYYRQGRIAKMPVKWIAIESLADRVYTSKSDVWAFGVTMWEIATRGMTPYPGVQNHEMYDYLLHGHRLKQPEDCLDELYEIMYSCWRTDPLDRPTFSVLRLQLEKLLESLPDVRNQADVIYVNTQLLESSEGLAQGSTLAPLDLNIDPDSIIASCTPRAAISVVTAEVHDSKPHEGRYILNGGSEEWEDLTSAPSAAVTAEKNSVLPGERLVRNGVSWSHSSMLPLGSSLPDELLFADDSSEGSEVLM
Assay: MerTk degradation in Jurkat cells (Western blot)
Format: cell-based
Conditions: Jurkat, 4 h, 0.001-1 μM, 4 hour-incubation at 37° C., read-out: Jurkat Max % MerTK Degradation
Summary of the method: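 Jurkat cells treated 4 h at 37 °C with compound at 0.001-1 μM final. RIPA lysates quantified by BCA, then MerTK probed by Western blot against actin loading control with IR-dye secondaries and Odyssey imaging.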

Row | Dmax | Structure (SMILES)
1 | > 50% | CCC[C@@H](C)Nc1ncc2c(n1)n([C@H]1CC[C@H](O)CC1)cc2[C@H]1CC[C@@H](CN2CCN(CCCO[C@H]3CCN(Cc4ccc5c(c4)n(C)c(=O)n5C4CCC(=O)NC4=O)C3)CC2)CC1 (stereo partly drawn) [I-219, 3-(3-methyl-2-oxo-5-[[(3S)-3-[3-(4-[[trans-4-[2-[(2S)-pentan-2-ylamino]-7-[trans-4-hydroxycyclohexyl]pyrrolo[2,3-d]pyrimidin-5-yl]cyclohexyl]methyl]piperazin-1-y1)propoxy]pyrrolidin-1-yl]methyl]-1,3-benzodiazol-1-yl)piperidine-2,6-dione; tris(formic acid)]
2 | > 50% | CCC[C@H](C)Nc1ncc2c(n1)n([C@H]1CC[C@H](O)CC1)cc2[C@H]1CC[C@@H](CN2CCN(CCCO[C@H]3CCN(Cc4ccc5c(c4)n(C)c(=O)n5C4CCC(=O)NC4=O)C3)CC2)CC1 (stereo partly drawn) [I-220, 3-(3-methyl-2-oxo-5-[[(3S)-3-[3-(4-[[4-[2-[(2S)-pentan-2-ylamino]-7-[trans-4-hydroxycyclohexyl]pyrrolo[2,3-d]pyrimidin-5-yl]cyclohexyl]methyl]piperazin-1-y1)propoxy]pyrrolidin-1-yl]methyl]-1,3-benzodiazol-1-y1)piperidine-2,6-dione]
3 | 20 to 50% | CCC[C@@H](C)Nc1ncc2c(n1)n([C@H]1CC[C@H](O)CC1)cc2[C@H]1CC[C@H](CN2CCN(CCCO[C@H]3CCN(Cc4ccc5c(c4)n(C)c(=O)n5C4CCC(=O)NC4=O)C3)CC2)CC1 (stereo partly drawn) [I-221, trans-3-(3-methyl-2-oxo-5-[[(3R)-3-[3-(4-[[(1r,4r)-4-[2-[(2S)-pentan-2-ylamino]-7-[4-hydroxycyclohexyl]pyrrolo[2,3-d]pyrimidin-5-yl]cyclohexyl]methyl]piperazin-1-y1)propoxy]pyrrolidin-1-yl]methyl]-1,3-benzodiazol-1-yl)piperidine-2,6-dione]
4 | > 50% | CCC[C@H](C)Nc1ncc2c(n1)n([C@H]1CC[C@H](O)CC1)cc2[C@H]1CC[C@@H](CN2CCN(CCCOC3CN(Cc4ccc5c(c4)n(C)c(=O)n5C4CCC(=O)NC4=O)C3)CC2)CC1 (stereo partly drawn) [I-222]
5 | 20 to 50% | CCC[C@H](C)Nc1ncc2c(n1)n([C@H]1CC[C@H](O)CC1)cc2[C@H]1CC[C@H](CN2CCN(CCCOC3CN(Cc4ccc5c(c4)n(C)c(=O)n5C4CCC(=O)NC4=O)C3)CC2)CC1 (stereo partly drawn) [I-223, 3-[3-methyl-2-oxo-5-([3-[3-(4-[[trans-4-[2-[(2S)-pentan-2-ylamino]-7-[trans-4-hydroxycyclohexyl]pyrrolo[2,3-d]pyrimidin-5-yl]cyclohexyl]methyl]piperazin-1-y1)propoxy]azetidin-1-yl]methyl)-1,3-benzodiazol-1-yl]piperidine-2,6-dione]
6 | < 20% | C[C@@H](CC(F)(F)F)Nc1ncc2c(-c3ccc(CN4CCN(CCCOCCCc5ccc6c(c5)n(C)c(=O)n6C5CCC(=O)N(C)C5=O)CC4)cc3)cn([C@H]3CC[C@H](O)CC3)c2n1 (stereo partly drawn) [I-225, 1-methyl-3-[3-methyl-2-oxo-5-[3-(3-[4-[(4-[7-[trans-4-hydroxycyclohexy1]-2-[[(2S)-4,4,4-trifluorobutan-2-yl]amino]pyrrolo[2,3-d]pyrimidin-5-yl]phenyl)methyl]piperazin-1-yl]propoxy)propyl]-1,3-benzodiazol-1-yl]piperidine-2,6-dione]

More lines, now with the values behind:

Row | Structure (SMILES) | Dmax
7 | CN1CCN(Cc2ccc(-c3ccc(CO[C@H]4CCC[C@@H]4NC(=O)c4cc(-c5cnn(CCOCCCc6ccc7c(c6)n(C)c(=O)n7C6CCC(=O)NC6=O)c5)cnc4N)cc3)cc2)CC1 (stereo partly drawn) [I-217, 2-Amino-5-[1-(2-[3-[1-(2,6-dioxopiperidin-3-yl)-3-methyl-2-oxo-1,3-benzodiazol-5-yl]propoxy]ethyl)pyrazol-4-yl]-N-[(1S,2S)-2-([4-[(4-methylpiperazin-1-yl)methyl]-[1,1-biphenyl]-4-yl]methoxy)cyclopentyl]pyridine-3-carboxamide] | 20 to 50%
8 | CN1CCN(Cc2ccc(-c3ccc(CO[C@H]4CCC[C@@H]4NC(=O)c4cc(-c5cnn(CCOCCCc6cccc7c6n(C)c(=O)n7C6CCC(=O)NC6=O)c5)cnc4N)cc3)cc2)CC1 (stereo partly drawn) [I-218, 2-Amino-5-[1-(2-[3-[1-(2,6-dioxopiperidin-3-yl)-3-methyl-2-oxo-1,3-benzodiazol-4-yl]propoxy]ethyl)pyrazol-4-yl]-N-[(1S,2S)-2-([4-[(4-methylpiperazin-1-yl)methyl]-[1,1-biphenyl]-4-yl]methoxy)cyclopentyl]pyridine-3-carboxamide] | < 20%
9 | C[C@H](CC(F)(F)F)Nc1ncc2c(-c3ccc(CN4CCN(CCCOCCCc5ccc6c(c5)n(C)c(=O)n6C5CCC(=O)N(C)C5=O)CC4)cc3)cn([C@H]3CC[C@H](O)CC3)c2n1 (stereo partly drawn) [I-224, 1-methyl-3-[3-methyl-2-oxo-5-[3-(3-[4-[(4-[7-[trans-4-hydroxycyclohexy1]-2-[[(2R)-4,4,4-trifluorobutan-2-yl]amino]pyrrolo[2,3-d]pyrimidin-5-yl]phenyl)methyl]piperazin-1-yl]propoxy)propyl]-1,3-benzodiazol-1-yl]piperidine-2,6-dione] | < 20%
10 | N[C@H]1CCCC[C@H]1Nc1cc2nc[nH]c(=O)c2c(Nc2cccc3c2ccn3CCOCCOCCOCCOCCNc2cccc3c2C(=O)N(C2CCC(=O)NC2=O)C3=O)n1 (stereo partly drawn) [I-227] | > 50%
11 | COc1ccc(Nc2nc(Nc3cc(OCCOCCOCCOCCOCC(=O)N[C@H](C(=O)N4C[C@H](O)C[C@H]4C(=O)NCc4ccc(-c5scnc5C)cc4)C(C)(C)C)c(OC)cc3C)ncc2Cl)c(NS(C)(=O)=O)c1 [I-228] | 20 to 50%
12 | Cc1ncsc1-c1ccc(CNC(=O)[C@@H]2C[C@@H](O)CN2C(=O)[C@@H](NC(=O)COCCOCCOCCOCCn2ccc3c(Nc4nc(N[C@@H]5CCCC[C@@H]5N)nnc4C(N)=O)cccc32)C(C)(C)C)cc1 [I-229] | < 20%
13 | Cc1ncsc1-c1ccc(CNC(=O)[C@@H]2C[C@@H](O)CN2C(=O)[C@@H](NC(=O)COCCOCCOCCOCCn2ccc3c(Nc4nc(N[C@@H]5CCCC[C@@H]5N)cc5nc[nH]c(=O)c45)cccc32)C(C)(C)C)cc1 [I-230] | < 20%
14 | COc1ccc(Nc2nc(Nc3cc(OCCOCCOCCOCCOCCNc4cccc5c4C(=O)N(C4CCC(=O)NC4=O)C5=O)c(OC)cc3C)ncc2Cl)c(NS(C)(=O)=O)c1 (stereo not drawn) [I-231] | < 20%
15 | COc1cc(Nc2nc(N[C@H]3CCCC[C@H]3N)n3ccnc3c2C(N)=O)cc(OCCOCCOCCOCCNc2cccc3c2C(=O)N(C2CCC(=O)NC2=O)C3=O)c1 (stereo partly drawn) [I-232] | < 20%
16 | CCC1CN(c2ccc(-c3ccnc(Nc4cc(OC)c(OC)c(OCCOCCOCCOCCOCC(=O)N[C@H](C(=O)N5C[C@H](O)C[C@H]5C(=O)NCc5ccc(-c6scnc6C)cc5)C(C)(C)C)c4)n3)cn2)CCN1 (stereo partly drawn) [I-233] | > 50%
17 | CCC1CN(c2ccc(-c3ccnc(Nc4cc(OC)c(OC)c(OCCOCCOCCOCCOCCNc5cccc6c5C(=O)N(C5CCC(=O)NC5=O)C6=O)c4)n3)cn2)CCN1 (stereo not drawn) [I-234] | < 20%
18 | CC(O)c1ccc2c(c1)n(C)c(=O)n2C1CCC(=O)NC1=O (stereo not drawn) [I-236] | > 50%
